The values below come from patent US6894075B2, “4′-demethyl-4′-O-substituted-1-deoxypodophyllotoxin derivative and geometric isomer thereof, process for the preparation thereof and anti-cancer composition comprising the same” (priority 2000, dated 2005).

Series [1] has as its system Lewis Lung Cancer Cell (LLC). Put plainly: Anti-cancer test for BDF1 mouse transplanted by Lewis Lung Cancer Cell, Experiment 2-1 (formulae 1a, 1b). The format is in vivo. The note with it: peritoneal injection 0.06 mmole/kg/day at days 1, 2, 4, 7, 8 (etoposide 36 mg/kg), cancer volume at 14 to 16 days. From the text:
In order to evaluate the anti-cancer activity of the compounds of the present invention, LLC, which is a lung cancer cell of mouse, was transplanted into the hypodermic region of BDF1 mouse to induce a solid cancer. […] Experiment for the compounds of formulae (1a) and (1b) and that for the compound of formula (1c) were separately carried out.
Male BDF1 mouse (Weight 18 to 25 g), being in good health and purchased from Korea Biolink Co., was used as a test animal.
The mice were bred at a place controlled to the temperature of 23 to 24° C. while provided with water and feed ad libitum. As the feed, feed for mouse containing no antibiotics was used. The hypodermic tissue of C57BL/6 mouse, which includes cells cultured therein for 14 days, was taken up. Sterilized cold physiological saline was added to the tissue in the amount of 5 ml/g tissue to make a cell suspension. This cell suspension of 0.2 ml was transplanted into the hypodermic region of armpit of BDF1 mouse.
(§1) Each group includes 5 mice. After 24 hours from the transplantation, each test compound of formulae (1a) and (1b) was dissolved in 4% Tween 80 and injected peritoneally in the amount of 0.2 ml and in a concentration of 0.06 mmole/kg/day (that is, 0.06 mmole of each test compound was dissolved in 10 ml of 4% Tween 80, and then 0.2 ml of the resulting solution was peritoneally injected into a mouse). Only 4% Tween 80 was injected for the negative control group, and the same moles of etoposide (36 mg/kg) was injected for the positive control group. The injection was performed five times at 1, 2, 4, 7 and 8 days from the transplantation of cancer.
The anti-cancer effect was determined by measuring the volume of cancer of the control and test groups at 14 to 16 days from the administration of drugs and then calculated as follows. Volume of Cancer(mm^3)=Length(mm)×Width^2(mm^2)/2 Suppression Rate of Cancer Growth(%)=(C−T)×100(%)/C in which • C represents the average volume of cancer (mm^3) of the control group, and • T represents the average volume of cancer (mm^3) of the test group.

A short description of series [2]: Weight change in the period of drug administration. Type of series: in vivo, mouse. To be noted: for Weight of mouse, Day 1: Day 1 from the cancer cell transplantation; for Weight of mouse, Day 2: Day 2 from the cancer cell transplantation; for Weight of mouse, Day 3: Day 3 from the cancer cell transplantation; for Weight of mouse, Day 4: Day 4 from the cancer cell transplantation; for Weight of mouse, Day 5: Day 5 from the cancer cell transplantation; for Weight of mouse, Day 6: Day 6 from the cancer cell transplantation; for Weight of mouse, Day 7: Day 7 from the cancer cell transplantation; for Weight of mouse, Day 8: Day 8 from the cancer cell transplantation. Here is the method:
as §1
As an index of toxicity, the weight change during the period of drug administration was recorded for the compounds of formulae (1a) and (1b) compared with the comparison compound of Etoposide.

For another series, the system named is A549 cell. As to the kind of experiment: Cytotoxicity test (SRB method) for A549 cells. Type of series: cell-based, human. To be noted: for EC50: read-out: ED50(nM) for A549. The method in brief:
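SRB assay: cells seeded 24 h at 37 °C, then exposed 48 h to samples at 0.1, 0.03, 0.01 and 0.003 mg/ml final. TCA-fixed, SRB-stained, OD read at 520 nm. Growth is calculated against time-zero and untreated controls, and ED50 is the concentration giving 50% growth inhibition, obtained by regression.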
A general note: The SRB assay estimates cell density from bound dye.

In series [3] the test system is mouse leukemia cell line L1210. The note with it: L1210 transplanted into CDF1 mouse, compared with the negative control (Terada et al. 1992); cited from earlier work.
The mark [4] stands for this setting: A549 human lung cancer cell, SRB, 48 hours incubation.

Structures are written as SMILES. Values joined by “and” are separate entries in the source; they are usually repeats but may differ in a detail not shown here. Identical values can stand only once. Like-named read-outs stand apart in the source and are kept apart here.

Take `COc1cc(C2c3cc4c(cc3CC3COC(=O)C32)OCO4)cc(OC)c1OC(=O)NCCCl` (centres unmarked) [Compound 1b-3, 4′-demethyl-4′-O-(2-chloroethylcarbamoyl)-1-deoxypodophyllotoxin]: in series [1], the “Suppression Rate for LLC” value is recorded as 75%. In series [2], the “Weight of mouse, Day 1” value came out at 23.3 g; the “Weight of mouse, Day 2” value was 23 g; the “Weight of mouse, Day 3” value is listed as 23.6 g; the “Weight of mouse, Day 4” value was 24.5 g. Besides, in series [2], the “Weight of mouse, Day 5” value was found to be 26 g; the “Weight of mouse, Day 6” value stood at 25 g; the “Weight of mouse, Day 7” value is recorded as 26 g; the “Weight of mouse, Day 8” value was 25.8 g. For the same compound, the EC50 in the series with A549 cell (setting [4]) was found to be 92 nM.
On to `COc1cc(C2c3cc4c(cc3CC3COC(=O)C32)OCO4)cc(OC)c1OC(=O)NC1CCCCC1` (centres unmarked) [Compound 1b-4, 4′-demethyl-4′-O-cyclohexylcarbamoyl-1-deoxypodophyllotoxin], for which, in series [1], the “Suppression Rate for LLC” value was 88%. In series [2], the “Weight of mouse, Day 1” value is on record as 23 g; the “Weight of mouse, Day 2” value amounted to 23.9 g; the “Weight of mouse, Day 3” value was 25 g; the “Weight of mouse, Day 4” value is 26 g. In series [2], the “Weight of mouse, Day 5” value is listed as 25 g; the “Weight of mouse, Day 6” value is listed as 26 g; the “Weight of mouse, Day 7” value amounted to 26 g; the “Weight of mouse, Day 8” value is listed as 25.5 g. For the same compound, in the series with A549 cell (setting [4]), the EC50 is 163 nM.
Turning to `COc1cc(C2c3cc4c(cc3CC3COC(=O)C32)OCO4)cc(OC)c1OC(=O)NCCO` (centres unmarked) [Compound 1b-5, 4′-demethyl-4′-O-(2-hydroxyethyl)carbamoyl-1-deoxypodophyllotoxin], in series [1], the “Suppression Rate for LLC” value is recorded as 95.1%. Besides, in series [2], the “Weight of mouse, Day 1” value amounted to 23.4 g; the “Weight of mouse, Day 2” value was determined as 23.8 g; the “Weight of mouse, Day 3” value was found to be 22.2 g; the “Weight of mouse, Day 4” value worked out at 23.8 g. Further, in series [2], the “Weight of mouse, Day 5” value came to 23.4 g; the “Weight of mouse, Day 6” value turned out to be 23.8 g; the “Weight of mouse, Day 7” value was 23 g; the “Weight of mouse, Day 8” value was determined as 23.2 g. In the series with A549 cell (A549, in words), the “cytotoxicity compared with DPT” value is listed as “stronger cytotoxicity than DPT”. Besides, the EC50 in the series on A549 cell (setting [4]) came to 61.5 nM.
Turning to `COc1cc([C@@H]2c3cc4c(cc3C[C@H]3COC(=O)[C@@H]32)OCO4)cc(OC)c1OC` [DPT, Deoxypodophyllotoxin], in series [3], the “extension effect of life span” value is recorded as “about 12%”. Moreover, in series [1], the “Suppression Rate for LLC” value was 60% and 60.2%. Further, in series [2], the “Weight of mouse, Day 1” value was 23.1 g; the “Weight of mouse, Day 2” value was 23.9 g; the “Weight of mouse, Day 3” value was determined as 24 g; the “Weight of mouse, Day 4” value worked out at 24 g. Further, in series [2], the “Weight of mouse, Day 5” value amounted to 24.4 g; the “Weight of mouse, Day 6” value worked out at 25 g; the “Weight of mouse, Day 7” value is 25 g; the “Weight of mouse, Day 8” value is given as 24.9 g. The EC50 with A549 cell (Homo sapiens, A549, 48 h) was 75.5 nM.
As to `COc1cc([C@@H]2c3cc4c(cc3[C@@H](O[C@@H]3O[C@@H]5CO[C@@H](C)O[C@H]5[C@H](O)[C@H]3O)[C@H]3COC(=O)[C@H]23)OCO4)cc(OC)c1O` [Etoposide, reference compound], the “Suppression Rate for LLC” value in series [1] is 90% and 90.8%. For the same compound, in series [2], the “Weight of mouse, Day 1” value was 23 g; the “Weight of mouse, Day 2” value came out at 24 g; the “Weight of mouse, Day 3” value is 25.1 g; the “Weight of mouse, Day 4” value is recorded as 26 g. Also, in series [2], the “Weight of mouse, Day 5” value amounted to 25.9 g; the “Weight of mouse, Day 6” value amounted to 26.3 g; the “Weight of mouse, Day 7” value came to 25.6 g; the “Weight of mouse, Day 8” value worked out at 26.6 g. Moreover, the “ED50(mg/mL) for A549” value in the series on A549 cell (A549, SRB, 48 hours incubation, Table 2) is 1.102 mg/mL. In the series on A549 cell (setting [4]), the EC50 was 1990 nM.
